Patent US9850283B2, “Macrocyclic inhibitors of the PD-1/PD-L1 and CD80(B7-1)/PD-L1 protein/protein interactions” (BRISTOL-MYERS SQUIBB COMPANY, priority 2013, dated 2017)
Where two headings read alike, the source gives them in different places. Positions of bridges follow the written chain, without caps; N, C: chain ends. Non-standard residues stand in square brackets, D forms with d. Residues, ends and D or L forms follow the SMILES beside them. ξ: configuration not given here. Phe(4-Cl) = N[C@@H](Cc1ccc(Cl)cc1)C(=O)O; Phe(4-NH2) = Nc1ccc(C[C@H](N)C(=O)O)cc1; Phe(4-F) = N[C@@H](Cc1ccc(F)cc1)C(=O)O; Bta = N[C@@H](Cc1csc2ccccc12)C(=O)O; NMeIle(3ξ) = CCC(C)[C@H](NC)C(=O)O; Hyp = O=C(O)[C@@H]1C[C@@H](O)CN1; NMeF = CN[C@@H](Cc1ccccc1)C(=O)O; 2Pal = N[C@@H](Cc1ccccn1)C(=O)O; AllylGly = C=CC[C@H](N)C(=O)O; NMeNle = CCCC[C@H](NC)C(=O)O; NMeS = CN[C@@H](CO)C(=O)O; Pip = O=C(O)[C@@H]1CCCCN1; NMeA = CN[C@@H](C)C(=O)O; Dab = NCC[C@H](N)C(=O)O; Dap = NC[C@H](N)C(=O)O; ξC = NC(CS)C(=O)O; Sar = CNCC(=O)O

Columns and labels:
[1] = molecular target: T1, LK35.2-hPD-L1 cells / PE-labeled PD-1-Ig (Homo sapiens, UniProt Q9NZQ7); assay: LK35.2-hPD-L1 cell binding high-content screening assay; type: cell-based
T1 construct: expressed in transfected cells; host or cells: LK35.2 mouse B cell line
T1 sequence (Q9NZQ7 19-290): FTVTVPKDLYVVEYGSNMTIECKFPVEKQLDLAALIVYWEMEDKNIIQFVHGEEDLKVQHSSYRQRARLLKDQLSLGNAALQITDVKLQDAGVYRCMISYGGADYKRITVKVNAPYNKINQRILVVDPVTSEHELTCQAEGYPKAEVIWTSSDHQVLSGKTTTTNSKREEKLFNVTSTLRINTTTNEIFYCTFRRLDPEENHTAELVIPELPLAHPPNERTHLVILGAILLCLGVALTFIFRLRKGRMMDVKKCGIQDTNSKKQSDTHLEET
Procedure, shortened: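 Compound effect on PD-1/PD-L1 binding is measured by imaging cell-associated phycoerythrin signal. Human PD-1-Ig (PE on Ig tag, 1 nM final) is applied with compound to a murine B cell line overexpressing human PD-L1 for 1 h at 37 °C in serum-containing RPMI.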

Human PD-L1/PD-1 = molecular target: T2, Human PD-L1/PD-1 (Homo sapiens, UniProt Q9NZQ7); assay: HTRF PD-1-Ig/PD-L1-His binding assay (human PD-L1)
T2 construct: made in house; host or cells: HEK293T
T2 sequence (Q9NZQ7 with tags, fused parts or gaps): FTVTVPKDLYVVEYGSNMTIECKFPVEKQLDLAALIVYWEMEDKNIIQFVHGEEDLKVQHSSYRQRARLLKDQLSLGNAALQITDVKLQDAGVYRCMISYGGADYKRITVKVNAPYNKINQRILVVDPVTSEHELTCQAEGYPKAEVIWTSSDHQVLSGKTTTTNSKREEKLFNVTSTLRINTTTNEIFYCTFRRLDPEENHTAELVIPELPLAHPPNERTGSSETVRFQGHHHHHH
Procedure, shortened: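 Steps: truncated PD-1-Ig and PD-L1-His fusions are incubated in dPBS containing 0.1% (w/v) BSA and 0.05% (v/v) Tween-20. Detection antibodies are then added (Eu cryptate anti-Ig at 1 nM final, APC anti-His at 20 nM final), and time-resolved FRET is measured.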

[2] = cell binding assay, cell line not given, cluster symbol, read-out: CBA IC50 cluster
[3] = cluster symbol, read-out: HTRF IC50 cluster
[4] = cluster symbol, cell line of CBA not given (LK35.2-hPD-L1 or 293T-hPD-L1), read-out: CBA IC50 cluster

CCCC[C@H]1C(=O)N(C)[C@@H](CCCC)C(=O)N[C@@H](CCCNC(=N)N)C(=O)NC(C(=O)NCC(N)=O)CSCC(=O)N[C@@H](Cc2ccc(O)cc2)C(=O)N(C)[C@@H](C)C(=O)N[C@@H](CC(N)=O)C(=O)N2CCC[C@H]2C(=O)N[C@@H](CC(N)=O)C(=O)N[C@@H](CC(C)C)C(=O)N2CCC[C@H]2C(=O)N[C@@H](Cc2c[nH]c3ccccc23)C(=O)N[C@@H](CO)C(=O)N[C@@H](Cc2csc3ccccc23)C(=O)N1C (some centres unmarked) [Example 9060] ({CH2CO}-Y[NMeA]NPNLPWS[Bta][NMeNle][NMeNle]R[ξC]G-NH2; thioether N-14)
IC50 [1, 2]: 0.158 to 4.71 nM | IC50 (Human PD-L1/PD-1; [3]): 0.385 to 6.74 nM

C=CC[C@@H]1NC(=O)[C@H](Cc2c[nH]c3ccccc23)NC(=O)[C@@H]2CCCN2C(=O)[C@H](CC(C)C)NC(=O)[C@H](Cc2cnc[nH]2)NC(=O)[C@@H]2CCCN2C(=O)[C@H](CC(N)=O)NC(=O)[C@H](C)N(C)C(=O)[C@H](Cc2ccc(O)cc2)NC(=O)CSC[C@@H](C(=O)NCC(N)=O)NC(=O)[C@H](CC=C)NC(=O)[C@H](CCCC)N(C)C(=O)[C@H](CCCC)N(C)C(=O)[C@H](Cc2c[nH]c3ccccc23)NC1=O [Example 7014] ({CH2CO}-Y[NMeA]NPHLPW[AllylGly]W[NMeNle][NMeNle][AllylGly]CG-NH2; thioether N-14)
IC50 [1, 2]: 0.158 to 4.71 nM | IC50 (Human PD-L1/PD-1; [3]): 0.385 to 6.74 nM

CCCC[C@H]1C(=O)N(C)[C@@H](CCCC)C(=O)N[C@@H](CCCNC(=N)N)C(=O)N[C@H](C(=O)NCC(N)=O)CSCC(=O)N[C@@H](Cc2ccccc2)C(=O)N(C)[C@@H](C)C(=O)N[C@@H](CC(N)=O)C(=O)N2CCC[C@H]2C(=O)N[C@@H](Cc2cnc[nH]2)C(=O)N[C@@H](Cc2c[nH]c3ccccc23)C(=O)N(C)CC(=O)N[C@@H](Cc2c[nH]c3ccccc23)C(=O)N[C@@H](CO)C(=O)N[C@@H](Cc2c[nH]c3ccccc23)C(=O)N1C [Example 6009] ({CH2CO}-F[NMeA]NPHW[Sar]WSW[NMeNle][NMeNle]RCG-NH2; thioether N-14)
IC50 ([1]; cell binding assay, cell line not given, value given instead of cluster, read-out: CBA IC50 value): 158 nM | IC50 (Human PD-L1/PD-1; value given instead of cluster, read-out: HTRF IC50 value): 69.7 nM

CCCC[C@@H]1NC(=O)CSC[C@@H](C(=O)NCC(N)=O)NC(=O)[C@H](CC(C)C)NC(=O)[C@H](Cc2ccc(O)cc2)NC(=O)[C@H](Cc2c[nH]c3ccccc23)NC(=O)CN(C)C(=O)[C@H](Cc2ccc(O)cc2)NC(=O)[C@H](Cc2ccccc2)N(C)C(=O)[C@H](C(C)C)NC(=O)[C@H](CC(=O)O)NC(=O)CN(C)C(=O)[C@H](CCCC)N(C)C(=O)[C@H](Cc2ccccc2)N(C)C1=O [Example 3171] (HELM PEPTIDE1{[O=C(C[*:3])[*:2]].[Nle].[meF].[CCCC[C@@H](C(=O)[*:2])N(C)[*:1]].[Sar].D.V.[meF].Y.[Sar].W.Y.L.C.G.[am]}$PEPTIDE1,PEPTIDE1,1:R3-14:R3$$$V2.0)
IC50 [1, 4]: > 74.3 nM | IC50 (Human PD-L1/PD-1; [3]): > 30.5 nM

CCCC[C@H]1C(=O)N(C)CC(=O)N[C@@H](CC(=O)O)C(=O)N[C@@H](C(C)C)C(=O)N(C)[C@@H](Cc2ccccc2)C(=O)N[C@@H](Cc2ccc(O)cc2)C(=O)N(C)CC(=O)N[C@@H](Cc2csc3ccccc23)C(=O)N[C@@H](Cc2ccc(O)cc2)C(=O)N[C@@H](CC(C)C)C(=O)N[C@H](C(=O)NCC(N)=O)CSCC(=O)N[C@@H](Cc2ccc(F)cc2)C(=O)N(C)[C@@H](Cc2ccccc2)C(=O)N1C [Example 3116] ({CH2CO}-[Phe(4-F)][NMeF][NMeNle][Sar]DV[NMeF]Y[Sar][Bta]YLCG-NH2; thioether N-13)
IC50 [1, 4]: 0.158 to 4.71 nM | IC50 (Human PD-L1/PD-1; [3]): 0.385 to 6.74 nM

C=CC[C@@H]1NC(=O)[C@H](Cc2c[nH]c3ccccc23)NC(=O)[C@@H]2CCCN2C(=O)[C@H](CC(C)C)NC(=O)[C@H](Cc2cnc[nH]2)NC(=O)[C@@H]2CCCN2C(=O)[C@H](CC(N)=O)NC(=O)[C@H](C)N(C)C(=O)[C@H](Cc2ccc(O)cc2)NC(=O)CSC[C@@H](C(=O)NCC(N)=O)NC(=O)[C@H](C)NC(=O)[C@H](CCCC)N(C)C(=O)[C@H](CCCC)N(C)C(=O)[C@H](Cc2c[nH]c3ccccc23)NC1=O [Example 7020] ({CH2CO}-Y[NMeA]NPHLPW[AllylGly]W[NMeNle][NMeNle]ACG-NH2; thioether N-14)
IC50 [1, 2]: 4.78 to 72.9 nM | IC50 (Human PD-L1/PD-1; [3]): 0.385 to 6.74 nM

CCCC[C@H]1C(=O)N[C@@H](CCCNC(=N)N)C(=O)NC(C(=O)NCC(N)=O)CSCC(=O)N[C@@H](Cc2ccc(O)cc2)C(=O)N(C)[C@@H](C)C(=O)N[C@@H](CC(N)=O)C(=O)N2CCC[C@H]2C(=O)N[C@@H](Cc2cnc[nH]2)C(=O)N[C@@H](CC(C)C)C(=O)N2C[C@H](O)C[C@H]2C(=O)N[C@@H](Cc2c[nH]c3ccccc23)C(=O)N[C@@H](CO)C(=O)N[C@@H](Cc2csc3ccccc23)C(=O)N(C)[C@@H](COCC)C(=O)N1C (some centres unmarked) [Example 9045] ({CH2CO}-Y[NMeA]NPHL[Hyp]WS[Bta][NMeS](Et)[NMeNle]R[ξC]G-NH2; thioether N-14)
IC50 [1, 2]: 0.158 to 4.71 nM | IC50 (Human PD-L1/PD-1; [3]): 0.385 to 6.74 nM

CCCC[C@H]1C(=O)N(C)[C@@H](C(C)CC)C(=O)N[C@@H](CN)C(=O)N[C@H](C(=O)NCC(N)=O)CSCC(=O)N[C@@H](Cc2ccc(O)cc2)C(=O)N(C)[C@@H](C)C(=O)N[C@@H](CC(N)=O)C(=O)N2CCC[C@H]2C(=O)N[C@@H](Cc2c[nH]cn2)C(=O)N[C@@H](CCC(=O)O)C(=O)N2C[C@H](O)C[C@H]2C(=O)N[C@@H](Cc2c[nH]c3ccccc23)C(=O)N[C@@H](CCN)C(=O)N[C@@H](Cc2c[nH]c3ccccc23)C(=O)N1C (some centres unmarked) [Example 5142] ({CH2CO}-Y[NMeA]NPHE[Hyp]W[Dab]W[NMeNle][NMeIle(3ξ)][Dap]CG-NH2; thioether N-14)
IC50 [1, 2]: 4.78 to 72.9 nM | IC50 (Human PD-L1/PD-1; [3]): 6.76 to 30.3 nM

CCCC[C@H]1C(=O)N(C)[C@@H](CCCC)C(=O)N[C@@H](CCCNC(=N)N)C(=O)N[C@H](C(=O)NCC(N)=O)CSCC(=O)N[C@@H](Cc2ccc(F)cc2)C(=O)N(C)[C@@H](C)C(=O)N[C@@H](CC(N)=O)C(=O)N2CCC[C@H]2C(=O)N[C@@H](CN)C(=O)N[C@@H](CC(C)C)C(=O)N2C[C@H](O)C[C@H]2C(=O)N[C@@H](Cc2c[nH]c3ccccc23)C(=O)N[C@@H](CO)C(=O)N[C@@H](Cc2c[nH]c3ccccc23)C(=O)N1C [Example 7048] ({CH2CO}-[Phe(4-F)][NMeA]NP[Dap]L[Hyp]WSW[NMeNle][NMeNle]RCG-NH2; thioether N-14)
IC50 [1, 2]: > 74.3 nM | IC50 (Human PD-L1/PD-1; [3]): 0.385 to 6.74 nM

CCCC[C@H]1C(=O)N(C)[C@@H](CCCC)C(=O)N[C@@H](CCCNC(=N)N)C(=O)N[C@H](C(=O)NCC(N)=O)CSCC(=O)N[C@@H](Cc2ccccn2)C(=O)N(C)[C@@H](C)C(=O)N[C@@H](CC(N)=O)C(=O)N2CCC[C@H]2C(=O)N[C@@H](Cc2c[nH]cn2)C(=O)N[C@@H](CC(C)C)C(=O)N2C[C@H](O)C[C@H]2C(=O)N[C@@H](Cc2c[nH]c3ccccc23)C(=O)N[C@@H](CO)C(=O)N[C@@H](Cc2c[nH]c3ccccc23)C(=O)N1C [Example 7025] ({CH2CO}-[2Pal][NMeA]NPHL[Hyp]WSW[NMeNle][NMeNle]RCG-NH2; thioether N-14)
IC50 [1, 2]: > 74.3 nM | IC50 (Human PD-L1/PD-1; [3]): > 30.5 nM

CCCC[C@H]1C(=O)N(C)[C@@H](CCCC)C(=O)N[C@@H](CCCNC(=N)N)C(=O)N[C@H](C(=O)NCC(N)=O)CSCC(=O)N[C@@H](Cc2ccc(N)cc2)C(=O)N(C)[C@@H](C)C(=O)N[C@@H](CC(N)=O)C(=O)N2CCC[C@H]2C(=O)N[C@@H](Cc2cnc[nH]2)C(=O)N[C@@H](CC(C)C)C(=O)N2C[C@H](O)C[C@H]2C(=O)N[C@@H](Cc2c[nH]c3ccccc23)C(=O)N[C@@H](CO)C(=O)N[C@@H](Cc2c[nH]c3ccccc23)C(=O)N1C [Example 7059] ({CH2CO}-[Phe(4-NH2)][NMeA]NPHL[Hyp]WSW[NMeNle][NMeNle]RCG-NH2; thioether N-14)
IC50 [1, 2]: 4.78 to 72.9 nM | IC50 (Human PD-L1/PD-1; [3]): 0.385 to 6.74 nM

CCCC[C@H]1C(=O)N(C)[C@@H](CCCC)C(=O)N[C@@H](CCCNC(=N)N)C(=O)N[C@H](C(=O)NCC(N)=O)CSCC(=O)N[C@@H](Cc2ccc(O)cc2)C(=O)N2CCCC[C@H]2C(=O)N[C@@H](CC(=O)O)C(=O)N2CCC[C@H]2C(=O)N[C@@H](CN)C(=O)N[C@@H](CC(C)C)C(=O)N2C[C@H](O)C[C@H]2C(=O)N[C@@H](Cc2c[nH]c3ccccc23)C(=O)N[C@@H](CO)C(=O)N[C@@H](Cc2c[nH]c3ccccc23)C(=O)N1C [Example 1233] ({CH2CO}-Y[Pip]DP[Dap]L[Hyp]WSW[NMeNle][NMeNle]RCG-NH2; thioether N-14)
IC50 [1, 4]: 0.158 to 4.71 nM | IC50 (Human PD-L1/PD-1; [3]): 6.76 to 30.3 nM

CCCC[C@H]1C(=O)N(C)[C@@H](CCCC)C(=O)N[C@@H](CCCNC(=N)N)C(=O)N[C@H](C(=O)NCC(N)=O)CSCC(=O)N[C@@H](Cc2ccc(Cl)cc2)C(=O)N(C)[C@@H](C)C(=O)N[C@@H](CC(N)=O)C(=O)N2CCC[C@H]2C(=O)N[C@@H](CN)C(=O)N[C@@H](CC(C)C)C(=O)N2C[C@H](O)C[C@H]2C(=O)N[C@@H](Cc2c[nH]c3ccccc23)C(=O)N[C@@H](CO)C(=O)N[C@@H](Cc2c[nH]c3ccccc23)C(=O)N1C [Example 7044] ({CH2CO}-[Phe(4-Cl)][NMeA]NP[Dap]L[Hyp]WSW[NMeNle][NMeNle]RCG-NH2; thioether N-14)
IC50 [1, 2]: 4.78 to 72.9 nM | IC50 (Human PD-L1/PD-1; [3]): 0.385 to 6.74 nM
